Laboratory results reported in patent publication US20100022611A1 (THE UNIVERSITY COURT OF THE UNIVERSITY OF ABERDEEN, priority 2007, published 2010).
Read-outs that look alike come from different tables or passages of the source.

How the values were obtained:
cannabinoid CB1 receptor = molecular target: T1, cannabinoid CB1 receptor (Mus musculus, UniProt P47746); assay: Mouse brain competition binding assay, [3H]CP55940 displacement
T1 construct: Whole brains from eight adult male mice were dissected and suspended in centrifugation buffer; from tissue; host or cells: mouse whole brain membranes
T1 sequence (P47746 whole entry): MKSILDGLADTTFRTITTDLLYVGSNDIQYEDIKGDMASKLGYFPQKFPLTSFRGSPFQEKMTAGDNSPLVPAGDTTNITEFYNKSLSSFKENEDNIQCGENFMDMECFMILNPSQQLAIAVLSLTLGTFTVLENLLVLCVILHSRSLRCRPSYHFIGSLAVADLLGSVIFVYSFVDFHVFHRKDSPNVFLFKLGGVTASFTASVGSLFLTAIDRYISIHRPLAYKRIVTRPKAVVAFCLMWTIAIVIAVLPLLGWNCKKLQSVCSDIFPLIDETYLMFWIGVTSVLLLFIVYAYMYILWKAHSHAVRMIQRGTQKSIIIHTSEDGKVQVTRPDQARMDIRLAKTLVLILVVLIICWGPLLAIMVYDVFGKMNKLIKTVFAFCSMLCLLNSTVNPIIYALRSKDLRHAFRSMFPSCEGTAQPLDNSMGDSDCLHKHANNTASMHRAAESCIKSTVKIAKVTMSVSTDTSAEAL
Procedure: The competition binding assay is a […] radioligand binding assay, which determines the affinity of a given compound for a specific receptor site, in this instance, the cannabinoid CB1 receptor. Mouse brain membranes were the chosen tissue due to their high expression of CB1 receptors.
Whole brains from eight adult male mice were dissected and suspended in centrifugation buffer. The brains were then homogenised with a Polytron Homogeniser prior to centrifugation at 1,600 RCF, 4° C. for 10 minutes. Centrifugation produced a supernatant, which was collected, and then the remaining pellet was re-suspended in centrifugation buffer and centrifuged as before. All supernatants were combined, and centrifuged at 28,000 RCF, 4° C. for a further 20 minutes. The supernatant was then discarded and the pellet re-suspended in Buffer A before incubation for 10 minutes at 37° C. The membrane suspension was then centrifuged at RCF 23,000, 4° C. for 20 minutes. The pellet was then re-suspended in Buffer A and incubated for 40 minutes at room temperature. The suspension was then centrifuged for 15 minutes at RCF 11,000, 4° C., and the pellet was then re-suspended in Buffer B. Finally a Protein Assay was carried out to determine the protein content of the mouse membrane preparation. The membrane samples were then made up into 1 mL aliquots of 1 mg/mL protein concentration and stored at −80° C. The samples were removed and defrosted when they were required.
The competition binding assay utilizes standard binding buffer, comprising:
10 μL of 1 mM stock of CP55940 in DMSO was added to 990 μL of binding buffer.
This was essential to obtain a value for specific binding, which is defined as the difference between the binding that occurs in the presence and absence of […] unlabelled CP55940.
(§1) Buffer; [^3H] […] The competition assay was initiated by the addition of the membranes. The assay was incubated at 37° C. in a water bath for 1 hour. The assay was terminated by addition of ice-cold Tris/BSA buffer and rapid vacuum filtration using a 24-well Brandel (cell harvester) and glass-fibre filters that had been soaked in Tris/BSA buffer at 4° C. for 24 hours. Each well was washed 6 times with 1.2 mL of Tris/BSA buffer. The filters were then oven dried for 1 hour. The sections of filter papers were then separated and placed in individual vials, to which 5 mL of scintillation fluid was added. The filter papers were soaked in the scintillation fluid for 1 hour before the radioactivity in each vial was quantified by liquid scintillation spectrometry.
Data were fitted to a one-site competition curve using GraphPad Prism 4.

CB1 receptor [1] = molecular target: T2, CB1 receptor (Mus musculus, UniProt P47746); assay: Electrically-evoked contractions of isolated mouse vas deferens, compound alone; set-up: The isolated vas deferens was then removed from the mouse by cutting through its prostatic end; from tissue; host or cells: isolated vas deferens of male albino MF1 mice; details: 1 μM, tested alone
T2 sequence (P47746 whole entry): as above
Excerpt: (§2) The vas deferens (or ductus deferens) is a muscular tube, approximately 3 mm in diameter and 30 cm in length, connecting the left and right epididymis to the ejaculatory ducts in order to move sperm. It is bound by connective tissue with an ample supply of blood vessels, nerves, and lymphatics. This in vitro bioassay exploits the expression of CB1 receptors on the presynaptic nerve terminals of this tubular structure.
(§3) The animals used in the study were male albino MF1 mice bred and were housed six to eight per-cage and were kept in a temperature-controlled room which was maintained on a fixed light-dark cycle. All mice were given free access to food and water. Subjects used in the study were a minimum of four weeks of age. Each mouse was stunned by striking the back of the head and killed by dislocation of the neck (cervical vertebrae). Following the killing, the mouse body weight was determined. A transverse incision, approximately of 1.5 cm, was made in the skin with the aid of dissection scissors. A similar-sized transverse incision was made through the lower abdominal wall. […] This was used to identify the vas deferens, which is attached to the testis via the epididymis. Gripping the epididymis with forceps, the vas deferens was cut free first from the testis and then from the connective tissue. The isolated vas deferens was then removed from the mouse by cutting through its prostatic end. This procedure was repeated on the right testis. It was important that throughout the latter two stages of this dissection, care was taken to ensure the vas deferens was not overstretched. In addition to their vas deferens, these animals were euthanized for use of their brain and small intestine by fellow researchers in different research fields. This minimisation of the number of animals euthanized complied with the European Community guidelines.
(§4) During transit, the two isolated vas deferens from each mice were kept moist in a glass vial filled with warm modified Mg^2+-free Krebs' solution. Before setting the tissue up in an organ bath, further removal of connective tissue, mesentery, and the epididymis was performed; cotton thread was tied securely to both end of the vas deferens.
(§5) The one-tailed thread was attached to the Pioden UF1 isometric transducer (Harvard Apparatus) and the two-tailed thread hung out of the bottom of the bath. The latter served as an anchor point for applying tension. […] Contractile activity was recorded using the isometric transducer and the output monitored by a computer connected to the data recording and analysis system (MacLab or PowerLab). The tissues were then ready for stimulation. […]

CB1 receptor [2] = molecular target: CB1 receptor (Homo sapiens, UniProt P21554); assay: [35S]GTPγS binding, compound alone, 24 hours FBS-starved CB1 CHO cells; assay type: biochemical; details: 1 nM to 10 μM
CB1 receptor (Homo sapiens, UniProt P21554), sequence (P21554 whole entry): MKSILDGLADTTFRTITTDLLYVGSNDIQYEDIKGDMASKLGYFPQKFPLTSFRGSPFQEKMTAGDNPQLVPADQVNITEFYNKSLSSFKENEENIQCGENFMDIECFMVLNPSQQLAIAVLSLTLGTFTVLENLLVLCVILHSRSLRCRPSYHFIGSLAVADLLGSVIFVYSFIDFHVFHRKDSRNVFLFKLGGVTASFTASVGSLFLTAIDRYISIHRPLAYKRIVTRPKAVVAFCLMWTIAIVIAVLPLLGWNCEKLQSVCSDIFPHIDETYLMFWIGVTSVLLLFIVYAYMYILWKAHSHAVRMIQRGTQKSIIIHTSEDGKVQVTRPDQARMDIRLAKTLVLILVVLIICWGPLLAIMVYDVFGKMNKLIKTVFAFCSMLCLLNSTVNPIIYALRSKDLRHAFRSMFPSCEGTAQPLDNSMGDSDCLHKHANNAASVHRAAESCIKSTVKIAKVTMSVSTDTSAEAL
Excerpt: (§6) The [^35S] GTPγS binding assay is simply a means of measuring G protein activation following agonist occupation of a GPCR. The significance of replacing endogenous GTP with radiolabeled [^35S] GTPγS is two-fold. […] GTPγS. Secondly, as with any radiolabelling, the aim is to allow quantitative analysis of a selected molecular species, in this case the degree of agonist binding can be gauged by measuring the subsequent levels of radioactivity in the desired tissue.
(§7) A vehicle control was an essential aspect of the experiment. […] The vehicle is made up of 10 μL of DMSO and 990 μL of binding buffer, resulting in the assay containing 0.1% vehicle.
as §1, with “[^35S]” for “[^3H]”, “GTPγS binding” for “competition”, “[^35S] GTPγS.” for “membranes.”, “have” for “had”
(§8) The data was fitted to a sigmoidal concentration-response curve using GraphPad Prism 4. Significance was defined by a one-sample t-test (GraphPad Prism 4), which compared mean % stimulation values S.E.M. to the basal binding level, 0.0% stimulation.
The vertical lines indicate S.E.M. (standard error of the mean) (*= P<0.05, **= P<0.01, ***= P<0.001, one-sample t-test) (n=4).

CB1 receptor [3] = molecular target: T2, CB1 receptor; assay: [35S]GTPγS binding, compound alone (Table 2, Function); assay type: biochemical; set-up: from tissue
Excerpt: as §6, §7
as §1, with “[^35S]” for “[^3H]”, “GTPγS binding” for “competition”, “[^35S] GTPγS.” for “membranes.”, “have” for “had”
as §8

CB1 receptor [4] = molecular target: T2, CB1 receptor; assay: Electrically-evoked contractions of mouse isolated vas deferens, antagonism of CP55940; set-up: The isolated vas deferens was then removed from the mouse by cutting through its prostatic end; from tissue; host or cells: isolated vas deferens of male albino MF1 mice
Excerpt: as §2, §3, §4, §5

CB1 receptor [5] = molecular target: T2, CB1 receptor; assay: [35S]GTPγS binding assay in mouse brain membranes, antagonism of CP55940; assay type: biochemical; set-up: Whole brains from eight adult male mice were dissected and suspended in centrifugation buffer; from tissue; host or cells: mouse whole brain membranes
Excerpt: as §6, §7
as §1, with “[^35S]” for “[^3H]”, “GTPγS binding” for “competition”, “[^35S] GTPγS.” for “membranes.”, “have” for “had”
as §8

[6] = mouse brain membranes, [3H]CP55940 0.7 nM, read-out: Ki (nM) [affinity] Mouse Brain [3H]CP55940 Displacement

| Compound | Ki (cannabinoid CB1 receptor; [6]) [nM] | Effect on electrically-evoked contractions of isolated mouse vas deferens (CB1 receptor [1]) | Effect on [35S]GTPγS binding, compound alone (CB1 receptor [2]) | Function Mouse Brain [35S]GTPγS Alone (CB1 receptor [3]; compound alone) | Shift in the log concentration response curve for CP55940, vas deferens contraction (CB1 receptor [4]) | Shift in the log concentration response curve for CP55940, [35S]GTPγS (CB1 receptor [5]) | Ki (cannabinoid CB1 receptor) [nM] | Function Mouse Brain [35S]GTPγS Alone (CB1 receptor [3]) |
| --- | --- | --- | --- | --- | --- | --- | --- | --- |
| Cc1c(C(=O)CC2CCCCC2)nn(-c2ccc(Cl)cc2Cl)c1-c1ccc(Cl)cc1 [ABD395] | 3.78 | neither inhibited nor significantly enhanced | only a small increase | Neutral antagonist | right-ward shift | right-ward shift |  |  |
| Cc1c(C(=O)CC2CCCCC2)nn(-c2ccc(Cl)cc2Cl)c1-c1ccc(Br)cc1 [ABD399] |  | neither inhibited nor significantly enhanced | no reduction | Neutral antagonist | right-ward shift | right-ward shift | 12.3 |  |
| Cc1c(C(O)CC2CCCCC2)nn(-c2ccc(Cl)cc2Cl)c1-c1ccc(Br)cc1 (stereo not shown) [ABD402, 1-[5-(4-Bromophenyl)-1-(2,4-dichlorophenyl)-4-methylpyrazol-3-yl]-2-cyclohexylethanol] |  | neither inhibited nor significantly enhanced | no reduction | Neutral antagonist | right-ward shift | right-ward shift | 32.3 |  |
| Cc1cccc(CC(=O)c2nn(-c3ccc(Cl)cc3Cl)c(-c3ccc(Cl)cc3)c2C)c1 [ABD434] |  |  |  |  |  |  | 7.42 | Neutral antagonist |
| Cc1c(C(=O)Cc2ccc(F)cc2)nn(-c2ccc(Cl)cc2Cl)c1-c1ccc(Cl)cc1 [ABD436] | 7.15 |  |  | Neutral antagonist |  |  |  |  |
| Cc1ccc(C(=O)c2nn(-c3ccc(Cl)cc3Cl)c(-c3ccc(Cl)cc3)c2C)cc1C [ABD437] |  |  |  |  |  |  | 14.2 | Neutral antagonist |
| COc1cccc(C(=O)c2nn(-c3ccc(Cl)cc3Cl)c(-c3ccc(Br)cc3)c2C)c1 [ABD438] |  |  |  |  |  |  | 7.7 | Neutral antagonist |
| COc1cccc(CC(=O)c2nn(-c3ccc(Cl)cc3Cl)c(-c3ccc(Br)cc3)c2C)c1 [ABD439] | 19.7 |  |  | Neutral antagonist |  |  |  |  |
| Cc1ccc(CC(=O)c2nn(-c3ccc(Cl)cc3Cl)c(-c3ccc(Br)cc3)c2C)cc1 [ABD440] | 27.1 |  |  | Neutral antagonist |  |  |  |  |
| Cc1c(C(=O)c2cccc(C(F)(F)F)c2)nn(-c2ccc(Cl)cc2Cl)c1-c1ccc(Cl)cc1 [ABD449] |  |  |  |  |  |  | 64.8 | Neutral antagonist |
| Cc1c(C(=O)c2ccc(F)cc2)nn(-c2ccc(Cl)cc2Cl)c1-c1ccc(Cl)cc1 [ABD450] | 63.2 |  |  | Neutral antagonist |  |  |  |  |
| Cc1c(C(=O)c2cccc(F)c2)nn(-c2ccc(Cl)cc2Cl)c1-c1ccc(Cl)cc1 [ABD453] | 13.8 |  |  | Neutral antagonist |  |  |  |  |
| Cc1c(C(=O)c2cccc(OC(F)(F)F)c2)nn(-c2ccc(Cl)cc2Cl)c1-c1ccc(Cl)cc1 [ABD454] | 26.7 |  |  | Neutral antagonist |  |  |  |  |
| COc1ccc(C(=O)c2nn(-c3ccc(Cl)cc3Cl)c(-c3ccc(Br)cc3)c2C)cc1 [ABD459] | 8.6 |  |  | Neutral antagonist |  |  |  |  |
